{"source": "ChEMBL document CHEMBL2203036", "about": "“Discovery of 1-[2-(2,4-dimethylphenylsulfanyl)phenyl]piperazine (Lu AA21004): a novel multimodal compound for the treatment of major depressive disorder” (J Med Chem, 2011)", "key": {"[1]": {"system": "Rattus norvegicus", "assay": "Target occupancy at SERT in Harlan rat at 5 mg/kg, sc administered QD for 3 days relative to vehicle-treated control", "format": "functional", "conditions": "route subcutaneous"}, "[2]": {"biological_target": "T1, 5-hydroxytryptamine receptor 7 (Homo sapiens, UniProt P34969)", "T1 sequence (P34969 whole entry)": "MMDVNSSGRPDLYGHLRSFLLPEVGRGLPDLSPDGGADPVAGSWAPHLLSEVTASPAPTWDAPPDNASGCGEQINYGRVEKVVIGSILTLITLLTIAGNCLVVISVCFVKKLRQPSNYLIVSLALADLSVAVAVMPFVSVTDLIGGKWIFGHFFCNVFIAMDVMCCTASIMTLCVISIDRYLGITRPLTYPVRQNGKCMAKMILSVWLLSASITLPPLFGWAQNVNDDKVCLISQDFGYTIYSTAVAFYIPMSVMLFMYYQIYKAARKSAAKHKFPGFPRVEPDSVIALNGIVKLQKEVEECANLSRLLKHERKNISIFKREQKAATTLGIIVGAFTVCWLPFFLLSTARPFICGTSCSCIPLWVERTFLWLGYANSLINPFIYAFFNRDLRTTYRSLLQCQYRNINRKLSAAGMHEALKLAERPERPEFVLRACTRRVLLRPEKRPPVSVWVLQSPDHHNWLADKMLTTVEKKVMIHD", "assay": "Antagonist activity at human 5HT7 receptor expressed in HEK-CNG cells assessed as effect on cAMP production by fluorescence based assay", "format": "functional, cell-based"}, "[3]": {"biological_target": "T1, 5-hydroxytryptamine receptor 7", "assay": "Binding affinity to human 5HT7 receptor"}, "[4]": {"biological_target": "5-hydroxytryptamine receptor 6 (Homo sapiens, UniProt P50406)", "sequence (P50406 whole entry)": "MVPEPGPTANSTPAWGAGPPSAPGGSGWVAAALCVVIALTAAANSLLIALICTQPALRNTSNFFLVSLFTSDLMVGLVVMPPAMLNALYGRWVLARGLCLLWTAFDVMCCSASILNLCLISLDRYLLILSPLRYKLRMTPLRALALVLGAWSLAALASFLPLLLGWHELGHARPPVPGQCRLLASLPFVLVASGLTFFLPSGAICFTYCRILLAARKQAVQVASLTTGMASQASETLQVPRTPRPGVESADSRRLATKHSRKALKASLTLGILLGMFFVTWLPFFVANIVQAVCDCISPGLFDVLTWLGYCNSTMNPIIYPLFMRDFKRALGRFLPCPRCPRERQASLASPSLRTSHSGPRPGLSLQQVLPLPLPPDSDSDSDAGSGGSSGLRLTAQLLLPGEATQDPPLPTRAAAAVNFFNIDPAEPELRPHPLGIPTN", "assay": "Binding affinity to human 5HT6 receptor"}, "[5]": {"biological_target": "5-hydroxytryptamine receptor 2C (Homo sapiens, UniProt P28335)", "sequence (P28335 whole entry)": "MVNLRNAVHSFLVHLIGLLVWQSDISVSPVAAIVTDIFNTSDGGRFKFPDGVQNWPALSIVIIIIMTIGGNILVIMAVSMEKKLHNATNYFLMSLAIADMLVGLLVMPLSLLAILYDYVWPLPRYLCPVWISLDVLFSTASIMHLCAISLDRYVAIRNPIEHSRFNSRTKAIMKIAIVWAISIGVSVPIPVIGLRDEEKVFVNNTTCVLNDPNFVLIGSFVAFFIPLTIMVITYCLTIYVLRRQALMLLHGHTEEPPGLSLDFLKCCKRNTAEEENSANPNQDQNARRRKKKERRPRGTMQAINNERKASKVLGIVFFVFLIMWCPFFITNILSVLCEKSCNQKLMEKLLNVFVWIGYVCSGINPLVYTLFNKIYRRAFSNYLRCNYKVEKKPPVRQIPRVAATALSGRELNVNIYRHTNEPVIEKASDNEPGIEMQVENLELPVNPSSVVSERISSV", "assay": "Binding affinity to human 5HT2C receptor"}, "[6]": {"biological_target": "Beta-2 adrenergic receptor (Homo sapiens, UniProt P07550)", "sequence (P07550 whole entry)": "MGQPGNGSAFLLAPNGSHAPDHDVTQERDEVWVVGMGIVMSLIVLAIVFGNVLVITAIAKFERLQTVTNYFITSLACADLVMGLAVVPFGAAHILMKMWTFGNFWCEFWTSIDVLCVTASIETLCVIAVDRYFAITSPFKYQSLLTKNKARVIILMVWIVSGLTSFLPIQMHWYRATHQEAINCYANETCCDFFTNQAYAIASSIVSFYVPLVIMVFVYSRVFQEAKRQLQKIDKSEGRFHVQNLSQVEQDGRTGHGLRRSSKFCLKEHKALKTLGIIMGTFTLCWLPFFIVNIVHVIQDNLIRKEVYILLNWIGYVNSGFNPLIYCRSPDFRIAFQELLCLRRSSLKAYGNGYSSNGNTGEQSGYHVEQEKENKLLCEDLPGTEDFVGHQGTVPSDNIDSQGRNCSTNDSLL", "assay": "Binding affinity to human beta 2 adrenergic receptor"}, "[7]": {"biological_target": "Histamine H1 receptor (Homo sapiens, UniProt P35367)", "sequence (P35367 whole entry)": "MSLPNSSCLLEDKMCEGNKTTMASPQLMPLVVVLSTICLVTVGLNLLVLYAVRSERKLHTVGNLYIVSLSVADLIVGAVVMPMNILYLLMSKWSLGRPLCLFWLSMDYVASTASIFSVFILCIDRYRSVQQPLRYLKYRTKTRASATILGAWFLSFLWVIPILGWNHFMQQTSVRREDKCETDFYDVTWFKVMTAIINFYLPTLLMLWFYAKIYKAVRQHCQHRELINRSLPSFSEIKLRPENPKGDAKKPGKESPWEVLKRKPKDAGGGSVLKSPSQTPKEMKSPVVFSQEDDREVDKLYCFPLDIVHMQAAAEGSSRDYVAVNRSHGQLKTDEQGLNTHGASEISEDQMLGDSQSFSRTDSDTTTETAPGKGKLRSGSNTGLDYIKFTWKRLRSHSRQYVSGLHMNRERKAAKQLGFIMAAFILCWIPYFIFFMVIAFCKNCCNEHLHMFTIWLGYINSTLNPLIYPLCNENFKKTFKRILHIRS", "assay": "Binding affinity to human histamine H1 receptor"}, "[8]": {"biological_target": "Sodium-dependent serotonin transporter (Homo sapiens, UniProt P31645)", "sequence (P31645 whole entry)": "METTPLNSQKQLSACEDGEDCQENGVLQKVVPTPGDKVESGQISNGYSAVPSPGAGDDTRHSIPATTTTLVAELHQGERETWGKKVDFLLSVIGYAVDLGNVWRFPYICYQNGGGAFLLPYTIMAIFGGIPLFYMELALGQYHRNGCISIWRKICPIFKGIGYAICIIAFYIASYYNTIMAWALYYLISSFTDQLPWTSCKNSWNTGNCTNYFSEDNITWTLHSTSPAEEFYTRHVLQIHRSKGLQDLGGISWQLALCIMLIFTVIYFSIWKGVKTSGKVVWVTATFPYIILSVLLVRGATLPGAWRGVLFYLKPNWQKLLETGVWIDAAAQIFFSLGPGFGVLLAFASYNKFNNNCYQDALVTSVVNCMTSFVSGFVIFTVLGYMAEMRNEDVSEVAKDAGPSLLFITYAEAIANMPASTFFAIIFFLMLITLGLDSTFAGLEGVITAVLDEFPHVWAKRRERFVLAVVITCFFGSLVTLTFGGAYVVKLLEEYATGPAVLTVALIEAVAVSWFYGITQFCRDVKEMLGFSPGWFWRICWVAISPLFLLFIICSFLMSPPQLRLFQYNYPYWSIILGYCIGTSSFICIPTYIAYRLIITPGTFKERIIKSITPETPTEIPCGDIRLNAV", "assay": "Binding affinity to human SERT"}, "[9]": {"biological_target": "5-hydroxytryptamine receptor 3A (Rattus norvegicus, UniProt P35563)", "sequence (P35563 whole entry)": "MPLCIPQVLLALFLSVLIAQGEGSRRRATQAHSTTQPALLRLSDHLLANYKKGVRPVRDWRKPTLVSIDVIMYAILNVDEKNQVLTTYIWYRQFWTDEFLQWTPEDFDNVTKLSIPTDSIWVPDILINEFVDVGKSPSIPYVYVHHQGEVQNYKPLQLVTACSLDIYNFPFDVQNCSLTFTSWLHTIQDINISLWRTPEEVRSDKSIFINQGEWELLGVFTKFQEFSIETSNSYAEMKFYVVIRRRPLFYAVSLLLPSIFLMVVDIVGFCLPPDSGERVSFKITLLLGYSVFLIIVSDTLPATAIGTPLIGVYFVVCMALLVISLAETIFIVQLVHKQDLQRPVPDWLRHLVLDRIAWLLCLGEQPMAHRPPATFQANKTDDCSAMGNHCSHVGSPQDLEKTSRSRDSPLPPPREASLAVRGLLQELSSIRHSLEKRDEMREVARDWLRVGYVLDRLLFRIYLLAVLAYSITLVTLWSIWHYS", "assay": "Antagonist activity at rat 5HT3A receptor expressed in xenopus oocytes assessed as inhibition of 5HT-induced effect by electrophysiological method", "format": "functional, cell-based, Oocyte"}, "[10]": {"biological_target": "Cytochrome P450 2D6 (Homo sapiens, UniProt P10635)", "sequence (P10635 whole entry)": "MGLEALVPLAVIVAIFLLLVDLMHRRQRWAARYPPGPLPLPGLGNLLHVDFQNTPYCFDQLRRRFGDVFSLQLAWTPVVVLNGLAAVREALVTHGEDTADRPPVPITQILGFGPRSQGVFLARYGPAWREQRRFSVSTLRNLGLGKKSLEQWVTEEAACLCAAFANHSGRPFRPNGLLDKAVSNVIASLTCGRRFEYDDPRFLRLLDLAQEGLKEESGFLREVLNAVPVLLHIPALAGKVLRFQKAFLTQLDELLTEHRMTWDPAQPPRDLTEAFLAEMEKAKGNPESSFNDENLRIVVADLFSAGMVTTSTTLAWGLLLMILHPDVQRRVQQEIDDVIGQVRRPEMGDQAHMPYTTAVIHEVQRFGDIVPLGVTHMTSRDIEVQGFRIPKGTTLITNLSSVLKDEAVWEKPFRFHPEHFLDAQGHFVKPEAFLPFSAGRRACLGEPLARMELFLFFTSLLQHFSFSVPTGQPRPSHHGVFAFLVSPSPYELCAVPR", "assay": "Inhibition of human recombinant CYP2D6 using 3-[2-(N,N-diethyl-N-methylamino)ethyl]-7-methoxy- 4-methylcoumarin after 45 mins by fluorescence spectrophotometric analysis", "format": "ADME"}, "[11]": {"biological_target": "T2, 5-hydroxytryptamine receptor 3A (Homo sapiens, UniProt P46098)", "T2 sequence (P46098 whole entry)": "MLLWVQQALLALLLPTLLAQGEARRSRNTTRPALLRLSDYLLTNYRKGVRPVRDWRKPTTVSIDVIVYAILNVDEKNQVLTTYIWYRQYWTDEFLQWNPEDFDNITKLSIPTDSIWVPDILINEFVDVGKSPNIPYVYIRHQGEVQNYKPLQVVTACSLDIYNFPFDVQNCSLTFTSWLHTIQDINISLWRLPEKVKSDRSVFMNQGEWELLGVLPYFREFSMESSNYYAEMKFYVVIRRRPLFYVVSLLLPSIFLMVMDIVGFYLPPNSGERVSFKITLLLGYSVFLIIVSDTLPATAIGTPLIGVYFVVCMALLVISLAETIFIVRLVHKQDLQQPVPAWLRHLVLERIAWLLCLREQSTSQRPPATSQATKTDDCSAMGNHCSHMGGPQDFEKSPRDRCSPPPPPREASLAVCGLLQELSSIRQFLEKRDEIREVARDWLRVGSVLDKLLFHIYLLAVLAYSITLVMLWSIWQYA", "assay": "Displacement of [3H]granisetron from human 5HT3A receptor expressed in HEK293 cells by filter binding assay", "format": "cell-based"}, "[12]": {"biological_target": "5-hydroxytryptamine receptor 1A (Rattus norvegicus) (UniProt P19327)", "sequence (P19327 whole entry, looked up)": "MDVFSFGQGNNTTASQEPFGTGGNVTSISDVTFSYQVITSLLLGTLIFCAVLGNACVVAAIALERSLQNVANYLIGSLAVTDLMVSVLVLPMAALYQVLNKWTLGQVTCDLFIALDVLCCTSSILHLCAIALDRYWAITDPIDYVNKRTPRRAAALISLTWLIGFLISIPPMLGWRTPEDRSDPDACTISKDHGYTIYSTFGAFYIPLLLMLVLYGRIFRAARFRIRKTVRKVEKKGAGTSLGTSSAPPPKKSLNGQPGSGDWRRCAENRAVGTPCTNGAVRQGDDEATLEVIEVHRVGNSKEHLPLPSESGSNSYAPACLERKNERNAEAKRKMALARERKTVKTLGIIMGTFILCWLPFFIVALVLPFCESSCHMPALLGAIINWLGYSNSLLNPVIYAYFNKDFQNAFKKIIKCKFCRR", "assay": "Binding affinity to rat 5HT1A receptor"}, "[13]": {"biological_target": "T3, 5-hydroxytryptamine receptor 3A (Homo sapiens) (UniProt P46098)", "T3 sequence (whole entry)": "T2 sequence (P46098 whole entry)", "assay": "Agonist activity at human 5HT3A receptor expressed in xenopus oocytes by electrophysiological method relative to 5HT", "conditions": "Oocyte"}, "[14]": {"system": "Rattus norvegicus", "assay": "Antidepression activity in Harlan rat assessed as increase in extracellular 5HT level in medial prefrontal cortex region at 5 to 10 mg/kg, sc administered QD for 3 days by microdialysis method"}}, "note": "Calls of active or inactive are those of the source. The calls are words filed in the database; no cut-off is given here.", "data": [{"smiles": "Cc1ccc(Sc2ccccc2N2CCNCC2)c(C)c1.Cl", "values": [{"measurement": "Occ", "setting": "[1]", "value": 43, "unit": "%"}, {"measurement": "Ki", "setting": "[2]", "value": 450, "unit": "nM"}, {"measurement": "Ki", "setting": "[3]", "value": 19, "unit": "nM"}, {"measurement": "Ki", "setting": "[4]", "value": 330, "unit": "nM"}, {"measurement": "Ki", "setting": "[5]", "value": 180, "unit": "nM"}, {"measurement": "Ki", "setting": "[6]", "value": 560, "unit": "nM"}, {"measurement": "Ki", "setting": "[7]", "value": 180, "unit": "nM"}, {"measurement": "Ki", "setting": "[8]", "value": 1.6, "unit": "nM"}, {"measurement": "IC50", "setting": "[9]", "value": 0.18, "unit": "nM"}, {"measurement": "IC50", "setting": "[10]", "value": 9800, "unit": "nM"}, {"measurement": "Ki", "setting": "[11]", "value": 23, "unit": "nM"}, {"measurement": "Ki", "setting": "[12]", "value": 230, "unit": "nM"}, {"measurement": "Efficacy", "setting": "[13]", "value": 64, "unit": "%"}, {"measurement": "Activity", "setting": "[14]", "value": "Active"}]}]}
